PubChem BioAssay AID256 (DTP/NCI, 2004)
“And” between values parts separate entries of the source, which are not always exact repeats. Identical values can stand only once. Toxic doses and inconclusive results are not listed. How the source made its calls: active means survival T/C of 150% or more; inactive means T/C below 125% in these data.

System: CD2F1 mice, L1210 leukemia ip, survival T/C
Assay: NCI In Vivo Anticancer Drug Screen. Data for tumor model L1210 Leukemia (intraperitoneal) in CD2F1 (CDF1) mice
Details: endpoint: mean survival time, higher = longer survival
In short: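 Read-out first: treated-group measurement over vehicle-control measurement, expressed as a ratio. Animals bore a transplanted tumor line and were dosed with compound or vehicle.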

[1] = dose: 100.0 mg/kg/injection, schedule: Q01DX001 (ip), vehicle: saline
[2] = dose: 200.0 mg/kg/injection, schedule: Q01DX001 (ip), vehicle: saline
[3] = dose: 400.0 mg/kg/injection, schedule: Q01DX001 (ip), vehicle: saline
[4] = dose: 100.0 mg/kg/injection, schedule: Q04DX003 (ip), vehicle: saline with Tween-80
[5] = dose: 200.0 mg/kg/injection, schedule: Q04DX003 (ip), vehicle: saline with Tween-80
[6] = dose: 400.0 mg/kg/injection, schedule: Q04DX003 (ip), vehicle: saline with Tween-80
[7] = dose: 100.0 mg/kg/injection, schedule: Q01DX009 (ip), vehicle: saline with Tween-80
[8] = dose: 200.0 mg/kg/injection, schedule: Q01DX009 (ip), vehicle: saline with Tween-80
[9] = dose: 400.0 mg/kg/injection, schedule: Q01DX009 (ip), vehicle: saline with Tween-80
[10] = dose: 100.0 mg/kg/injection, schedule: Q04DX003 (ip), vehicle: saline
[11] = dose: 200.0 mg/kg/injection, schedule: Q04DX003 (ip), vehicle: saline
[12] = dose: 400.0 mg/kg/injection, schedule: Q04DX003 (ip), vehicle: saline

Measured: T/C

Cc1cc(O)c2c(c1O)C(=O)c1c(O)ccc(O)c1C2=O
inactive: [1] 95 % of control | [2] 95 % of control | [3] 97 % of control

COc1ccc(/C=C/c2ccc([N+](=O)[O-])cc2)cc1
inactive: [4] 102 % of control | [5] 100 % of control | [6] 100 % of control

Cc1c(Cl)cc(Cl)c(N)c1Cl
inactive: [7] 93 % of control | [8] 97 % of control | [9] 97 % of control

C=CCNC(=S)NCCCCCCCCCCCCCCCCCC
inactive: dose: 12.5 mg/kg/injection, schedule: Q01DX009 (ip), vehicle: saline with Tween-80 98 % of control | dose: 25.0 mg/kg/injection, schedule: Q01DX009 (ip), vehicle: saline with Tween-80 98 % of control | dose: 50.0 mg/kg/injection, schedule: Q01DX009 (ip), vehicle: saline with Tween-80 104 % of control

[Cl][Pt+2][Cl].[NH-]Cc1ccccc1C[NH-]
inactive: dose: 3.13 mg/kg/injection, schedule: Q04DX003 (ip), vehicle: dextrose 114 % of control | dose: 6.25 mg/kg/injection, schedule: Q04DX003 (ip), vehicle: dextrose 116 % of control | dose: 12.5 mg/kg/injection, schedule: Q04DX003 (ip), vehicle: dextrose 124 % of control | dose: 25.0 mg/kg/injection, schedule: Q04DX003 (ip), vehicle: dextrose 114 % of control | dose: 50.0 mg/kg/injection, schedule: Q04DX003 (ip), vehicle: dextrose 86 % of control

CCCCCCCCCCCCCCCC(=O)Nc1ccc(CC)cc1
inactive: dose: 100.0 mg/kg/injection, schedule: Q04DX002 (ip), vehicle: saline with Tween-80 103 % of control | dose: 200.0 mg/kg/injection, schedule: Q04DX002 (ip), vehicle: saline with Tween-80 91 % of control | dose: 400.0 mg/kg/injection, schedule: Q04DX002 (ip), vehicle: saline with Tween-80 95 % of control

OCc1cc2ccccc2cc1Br
inactive: dose: 50.0 mg/kg/injection, schedule: Q01DX001 (ip), vehicle: saline 89 % of control | [1] 93 % of control | [2] 95 % of control | [3] 100 % of control

COc1ccc2c(c1)CC/C2=N/O
inactive: [4] 97 % of control | [5] 103 % of control | [6] 107 % of control

CCCCCC(/C=C/C1C=CC(=O)C1C/C=C/CCCC(=O)OC)OC(C)=O (stereo not given)
inactive: [4] 95 % of control | [5] 100 % of control | [6] 95 % of control

[Cl][Fe]([Cl])([Cl])[Cl].c1ccc(-c2cc(-c3ccccc3)[o+]c(-c3ccccc3)c2)cc1
inactive: dose: 25.0 mg/kg/injection, schedule: Q04DX003 (ip), vehicle: saline with Tween-80 87 % of control | dose: 50.0 mg/kg/injection, schedule: Q04DX003 (ip), vehicle: saline with Tween-80 87 % of control | [4] 86 % of control and 91 % of control

Nc1nc(N)c(-c2cccc(Cl)c2)c(COc2ccc(NC(=O)Nc3cccc(S(=O)(=O)F)c3)cc2)n1
inactive: dose: 37.5 mg/kg/injection, schedule: Q01DX001 (ip), vehicle: saline with Tween-80 100 % of control | dose: 75.0 mg/kg/injection, schedule: Q01DX001 (ip), vehicle: saline with Tween-80 91 % of control | dose: 150.0 mg/kg/injection, schedule: Q01DX001 (ip), vehicle: saline with Tween-80 92 % of control

CCOC(=O)N1CCN(c2ccc(Cl)cc2)CC1
inactive: dose: 100.0 mg/kg/injection, schedule: Q04DX003 (ip), vehicle: Klucel (hydroxypropylcellulose) (HPC) 93 % of control | dose: 200.0 mg/kg/injection, schedule: Q04DX003 (ip), vehicle: Klucel (hydroxypropylcellulose) (HPC) 91 % of control

CCCCCCCC(=O)Nc1ccc(C)cc1C
inactive: [7] 91 % of control | [8] 98 % of control | [9] 91 % of control

O=C(O)c1cc([N+](=O)[O-])ccc1Br
inactive: [4] 103 % of control | [5] 105 % of control | [6] 95 % of control

O=C(CBr)c1cc(-c2ccccc2)nc2c(Cl)cc(Cl)cc12
inactive: [1] 100 % of control | [2] 103 % of control | [3] 97 % of control

S=c1nc[nH]c2c1ncn2CN1CCCCC1
inactive: [8] 116 % of control

COc1cc2c(c(OC)c1OC)-c1ccc(SC)c(=O)cc1[C@@H](NC(=O)NCCCl)CC2
inactive: dose: 1.56 mg/kg/injection, schedule: Q01DX005 (ip), vehicle: water 103 % of control | dose: 3.13 mg/kg/injection, schedule: Q01DX005 (ip), vehicle: water 103 % of control | dose: 6.25 mg/kg/injection, schedule: Q01DX005 (ip), vehicle: water 122 % of control | dose: 6.25 mg/kg/injection, schedule: Q01DX009 (ip), vehicle: water 123 % of control | dose: 12.5 mg/kg/injection, schedule: Q01DX005 (ip), vehicle: water 117 % of control | dose: 12.5 mg/kg/injection, schedule: Q01DX009 (ip), vehicle: water 123 % of control

COC(=O)C1(N)CCCC1
inactive: dose: 25.0 mg/kg/injection, schedule: Q04DX003 (ip), vehicle: saline 101 % of control | dose: 50.0 mg/kg/injection, schedule: Q04DX003 (ip), vehicle: saline 100 % of control | [4] 105 % of control | [10] 113 % of control | dose: 200.0 mg/kg/injection, schedule: Q01DX009 (ip), vehicle: saline 121 % of control | [5] 122 % of control

S=C(S)Nc1ccc(Cc2ccc(NC(=S)S)cc2)cc1
inactive: [7] 98 % of control | [8] 96 % of control | [9] 93 % of control

O=C(CCCCCNC(=O)OCc1ccccc1)Oc1ccc([N+](=O)[O-])cc1
inactive: [4] 101 % of control | [5] 96 % of control | [6] 94 % of control

COc1cc2cc3c4cc(OC)c(OC)cc4cc[n+]3c(C)c2cc1OC
inactive: [1] 120 % of control | dose: 132.0 mg/kg/injection, schedule: Q04DX003 (ip), vehicle: saline sonified 122 % of control | [2] 122 % of control | dose: 200.0 mg/kg/injection, schedule: Q04DX003 (ip), vehicle: saline sonified 114 % of control | [11] 122 % of control | dose: 300.0 mg/kg/injection, schedule: Q04DX003 (ip), vehicle: saline sonified 123 % of control | [3] 109 % of control | [12] 116 % of control

CC1(C(=O)O)OCCO1
inactive: [10] 97 % of control | [11] 103 % of control | [12] 96 % of control

Cc1ccc(S(=O)(=O)N=P(c2ccccc2)(c2ccccc2)c2ccccc2)cc1
inactive: [7] 93 % of control and 94 % of control | [8] 88 % of control | [9] 91 % of control and 93 % of control

CC(=O)OC1C(N=[N+]=[N-])C(OC(C)=O)C(OC(C)=O)C(OC(C)=O)C1OC(C)=O (stereo not given)
inactive: dose: 100.0 mg/kg/injection, schedule: Q01DX001 (ip), vehicle: Klucel (hydroxypropylcellulose) (HPC) 93 % of control | dose: 200.0 mg/kg/injection, schedule: Q01DX001 (ip), vehicle: Klucel (hydroxypropylcellulose) (HPC) 95 % of control | dose: 400.0 mg/kg/injection, schedule: Q01DX001 (ip), vehicle: Klucel (hydroxypropylcellulose) (HPC) 103 % of control

O=C(O)C(=O)O.[Co].[NH-]CC[NH-].[NH-]CC[NH-]
inactive: dose: 100.0 mg/kg/injection, schedule: Q04DX002 (ip), vehicle: saline 98 % of control

Nc1nc2nc[n-]c2c(=O)[nH]1.[NH2-].[NH2-].[NH2-].[NH2-].[NH2-].[Ru+6]
inactive: dose: 6.25 mg/kg/injection, schedule: Q04DX003 (ip), vehicle: water 96 % of control | dose: 12.5 mg/kg/injection, schedule: Q04DX003 (ip), vehicle: water 96 % of control | dose: 25.0 mg/kg/injection, schedule: Q04DX003 (ip), vehicle: water 102 % of control

CC(=O)Nc1sc2c(c1C#N)CCCC2
inactive: [4] 93 % of control | [5] 93 % of control | [6] 101 % of control
